Test results published in ChEMBL document CHEMBL5260848, “Recent advancements in the development of bioactive pyrazoline derivatives” (Eur J Med Chem, 2020).
One block for each compound: values may come before it.

Legend:
[1] = tested on: HSC-3; experiment: Cytotoxicity against human HSC-3 cells assessed as reduction in cell viability incubated for 48 hrs by MTT assay; format: functional
[2] = tested on: HSC-2; experiment: Cytotoxicity against human HSC-2 cells assessed as reduction in cell viability incubated for 48 hrs by MTT assay; format: functional
[3] = tested on: Ca9-22; experiment: Cytotoxicity against human Ca9-22 cells assessed as reduction in cell viability incubated for 48 hrs by MTT assay; format: functional
[4] = Cytotoxicity against human HPLF cells assessed as reduction in cell viability incubated for 48 hrs by MTT assay; format: functional
[5] = Cytotoxicity against human HPC cells assessed as reduction in cell viability incubated for 48 hrs by MTT assay; format: functional
[6] = Cytotoxicity against human HGF cells assessed as reduction in cell viability incubated for 48 hrs by MTT assay; format: functional
[7] = species: Mus musculus; experiment: Antidepressant activity in mouse assessed as […] by tail suspension test; format: functional
[8] = species: Mus musculus; experiment: Antidepressant activity in mouse assessed as […] by forced swimming test; format: functional
[9] = target: T1, Amine oxidase [flavin-containing] B (Homo sapiens, UniProt P27338)
T1 sequence (P27338 whole entry): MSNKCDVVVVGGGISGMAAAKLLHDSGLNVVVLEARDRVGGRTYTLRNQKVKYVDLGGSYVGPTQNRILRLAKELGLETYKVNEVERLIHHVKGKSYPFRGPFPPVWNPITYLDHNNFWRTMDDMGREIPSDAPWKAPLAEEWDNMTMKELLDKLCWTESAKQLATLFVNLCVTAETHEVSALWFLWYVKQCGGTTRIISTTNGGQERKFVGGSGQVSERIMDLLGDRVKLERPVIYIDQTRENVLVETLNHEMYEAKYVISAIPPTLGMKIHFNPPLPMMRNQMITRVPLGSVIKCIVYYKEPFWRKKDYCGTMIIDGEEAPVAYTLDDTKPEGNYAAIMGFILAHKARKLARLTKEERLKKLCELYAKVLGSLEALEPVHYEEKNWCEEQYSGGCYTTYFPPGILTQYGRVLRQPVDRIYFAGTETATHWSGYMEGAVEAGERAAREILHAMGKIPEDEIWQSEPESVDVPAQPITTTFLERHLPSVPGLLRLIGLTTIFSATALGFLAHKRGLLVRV

[10] = species: Homo sapiens; experiment: Selectivity index, ratio of Ki for human MAO-A to Ki for human MAO-B
[11] = target: T2, Amine oxidase [flavin-containing] A (Homo sapiens, UniProt P21397)
T2 sequence (P21397 whole entry): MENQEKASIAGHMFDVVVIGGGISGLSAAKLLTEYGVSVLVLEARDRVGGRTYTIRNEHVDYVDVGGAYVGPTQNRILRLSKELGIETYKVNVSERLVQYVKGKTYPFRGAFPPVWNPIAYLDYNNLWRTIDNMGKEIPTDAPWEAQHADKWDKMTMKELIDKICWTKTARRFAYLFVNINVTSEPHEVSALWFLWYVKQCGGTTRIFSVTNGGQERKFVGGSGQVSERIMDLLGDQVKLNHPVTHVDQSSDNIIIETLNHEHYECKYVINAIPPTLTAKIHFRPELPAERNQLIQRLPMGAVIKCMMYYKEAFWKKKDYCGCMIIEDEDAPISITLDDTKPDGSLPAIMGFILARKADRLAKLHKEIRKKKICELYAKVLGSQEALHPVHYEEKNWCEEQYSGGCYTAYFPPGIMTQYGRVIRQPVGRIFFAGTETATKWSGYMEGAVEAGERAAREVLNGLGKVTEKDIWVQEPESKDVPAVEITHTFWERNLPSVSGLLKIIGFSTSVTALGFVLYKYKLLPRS

[12] = target: T3, Carbonic anhydrase 1 (Homo sapiens, UniProt P00915); experiment: Inhibition of human recombinant CA1
T3 sequence (P00915 whole entry): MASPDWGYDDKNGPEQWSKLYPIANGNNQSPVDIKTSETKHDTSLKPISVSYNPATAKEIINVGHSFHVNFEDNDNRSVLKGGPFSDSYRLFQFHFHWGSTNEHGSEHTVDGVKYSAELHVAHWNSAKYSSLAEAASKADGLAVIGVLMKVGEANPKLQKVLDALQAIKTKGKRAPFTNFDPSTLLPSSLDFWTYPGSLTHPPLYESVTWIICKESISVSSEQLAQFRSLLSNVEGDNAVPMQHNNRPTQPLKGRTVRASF

[13] = target: Carbonic anhydrase 4 (Homo sapiens, UniProt P22748); experiment: Inhibition of human recombinant CA4
Chain of Carbonic anhydrase 4 (P22748 whole entry): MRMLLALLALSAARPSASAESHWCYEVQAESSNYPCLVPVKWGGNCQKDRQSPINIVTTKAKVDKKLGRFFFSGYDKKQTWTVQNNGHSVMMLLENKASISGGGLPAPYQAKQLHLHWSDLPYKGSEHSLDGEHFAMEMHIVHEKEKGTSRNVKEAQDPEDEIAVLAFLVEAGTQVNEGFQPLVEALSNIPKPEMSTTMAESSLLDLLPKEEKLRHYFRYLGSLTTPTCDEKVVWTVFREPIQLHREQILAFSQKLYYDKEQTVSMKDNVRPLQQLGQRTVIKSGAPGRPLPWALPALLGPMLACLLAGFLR

[14] = target: T4, Carbonic anhydrase 9 (Homo sapiens, UniProt Q16790)
[15] = target: T5, Carbonic anhydrase 2 (Homo sapiens, UniProt P00918); experiment: Inhibition of human recombinant CA2
[16] = species: Mus musculus; experiment: Antidepressant activity in Swiss albino mouse assessed as decrease in immobility time by forced swimming test; format: functional; note: test concentration or dose not given here
[17] = species: Mus musculus; experiment: Antidepressant activity in Swiss albino mouse assessed as decrease in immobility time by tail suspension test; format: functional; note: test concentration or dose not given here
[18] = target: T4, Carbonic anhydrase 9; experiment: Inhibition of human CA9 preincubated for 15 mins by phenol red dye based stopped flow CO2 hydration assay
[19] = target: Carbonic anhydrase 12 (Homo sapiens, UniProt O43570); experiment: Inhibition of human CA12 preincubated for 15 mins by phenol red dye based stopped flow CO2 hydration assay
Chain of Carbonic anhydrase 12 (O43570 whole entry): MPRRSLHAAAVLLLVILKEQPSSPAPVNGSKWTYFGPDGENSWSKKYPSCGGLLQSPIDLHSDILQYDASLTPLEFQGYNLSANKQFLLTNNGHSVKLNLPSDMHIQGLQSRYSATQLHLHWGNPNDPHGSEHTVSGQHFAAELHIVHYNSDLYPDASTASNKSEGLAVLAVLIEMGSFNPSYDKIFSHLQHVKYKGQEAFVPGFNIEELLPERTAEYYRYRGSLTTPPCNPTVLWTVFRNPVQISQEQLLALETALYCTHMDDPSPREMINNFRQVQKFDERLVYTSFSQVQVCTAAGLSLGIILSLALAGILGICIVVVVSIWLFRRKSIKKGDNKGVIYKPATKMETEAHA

[20] = target: T3, Carbonic anhydrase 1
[21] = target: T5, Carbonic anhydrase 2

Ki [9]: 200 nM | Ratio Ki [10]: 0.000464 | Ki [11]: 0.1 nM
SMILES: CNC(=S)N1N=C(c2ccccc2)CC1c1ccc(F)cc1 (stereo not drawn)

Ki [9]: 200 nM | Ratio Ki [10]: 0.000464 | Ki [11]: 0.1 nM
SMILES: C=CCNC(=S)N1N=C(c2ccc(Cl)cc2)CC1c1ccc(F)cc1 (stereo not drawn)

Ki [12]: 2460 nM | Ki [13]: 17.7 nM | Ki [14]: 14.8 nM | Ki [15]: 0.4 nM
SMILES: CC(=O)N1N=C(c2ccc(OS(N)(=O)=O)cc2)CC1c1ccccc1 (stereo not drawn)

Ki [9]: 200 nM | Ratio Ki [10]: 0.000464 | Ki [11]: 0.1 nM
SMILES: C=CCNC(=S)N1N=C(c2ccc(C)cc2)CC1c1ccc(F)cc1 (stereo not drawn)

Ki [12]: 2460 nM | Ki [13]: 17.7 nM | Ki [14]: 14.8 nM | Ki [15]: 0.4 nM
SMILES: COc1ccc(C2=NN(C(C)=O)C(c3ccc(OS(N)(=O)=O)cc3)C2)cc1 (stereo not drawn)

Ki [9]: 200 nM | Ratio Ki [10]: 0.000464 | Ki [11]: 0.1 nM
SMILES: CCNC(=S)N1N=C(c2ccc(OC)cc2)CC1c1ccc(F)cc1 (stereo not drawn)

Ki [9]: 200 nM | Ratio Ki [10]: 0.000464 | Ki [11]: 0.1 nM
SMILES: CCNC(=S)N1N=C(c2ccccc2)CC1c1ccc(F)cc1 (stereo not drawn)

Ki [12]: 2460 nM | Ki [13]: 17.7 nM | Ki [14]: 14.8 nM | Ki [15]: 0.4 nM
SMILES: CC(=O)N1N=C(c2ccc(F)cc2)CC1c1cccc(OS(N)(=O)=O)c1 (stereo not drawn)

Ki [9]: 200 nM | Ratio Ki [10]: 0.000464 | Ki [11]: 0.1 nM
SMILES: CNC(=S)N1N=C(c2ccc(OC)cc2)CC1c1ccc(F)cc1 (stereo not drawn)

Ki [9]: 200 nM | Ratio Ki [10]: 0.000464 | Ki [11]: 0.1 nM
SMILES: C=CCNC(=S)N1N=C(c2ccccc2)CC1c1ccc(F)cc1 (stereo not drawn)

More lines, now with the values behind:

SMILES: Cc1ccc(C2CC(c3ccc(O)cc3)=NN2c2ccc(S(N)(=O)=O)cc2)cc1 (stereo not drawn)
CC50 [1]: 39300 nM | CC50 [2]: 39300 nM | CC50 [3]: 39300 nM | CC50 [4]: 39300 nM | CC50 [5]: 39300 nM | CC50 [6]: 39300 nM

SMILES: Clc1ccc(C2=NNC(c3cccs3)C2)cc1 (stereo not drawn)
Time [7]: 21.17 s | Time [8]: 21.17 s

SMILES: c1ccc(C2=NNC(c3cccs3)C2)nc1 (stereo not drawn)
Time [7]: 21.17 s | Time [8]: 21.17 s

SMILES: Cc1nc(-c2ccc(F)cc2)ccc1C1=NNC(c2cc(F)cc(F)c2)C1 (stereo not drawn)
Time [16]: 66.67 s | Time [17]: 70.33 s

SMILES: Cc1nc(-c2ccc(F)cc2)ccc1C1=NNC(c2ccc(Br)cc2)C1 (stereo not drawn)
Time [16]: 66.67 s | Time [17]: 70.33 s

SMILES: COc1ccc(C2CC(c3cccc4ccccc34)=NN2)cc1OC (stereo not drawn)
Time [7]: 36.83 s | Time [8]: 21.17 s

SMILES: COc1ccc(-c2ccc(C3=NNC(c4ccc(Br)cc4)C3)c(C)n2)cc1OC (stereo not drawn)
Time [16]: 66.67 s | Time [17]: 70.33 s

SMILES: Cc1nc(-c2cccc(Cl)c2Cl)ccc1C1=NNC(c2cc(F)cc(F)c2)C1 (stereo not drawn)
Time [16]: 66.67 s | Time [17]: 70.33 s

SMILES: Clc1ccc(C2CC(c3ccccn3)=NN2)cc1 (stereo not drawn)
Time [7]: 21.17 s | Time [8]: 21.17 s

SMILES: NS(=O)(=O)c1ccc(N2N=C(c3ccc(O)cc3)CC2c2ccc(Cl)cc2Cl)cc1 (stereo not drawn)
Ki [18]: 53.5 nM | CC50 [1]: 39300 nM | CC50 [2]: 39300 nM | CC50 [3]: 39300 nM | CC50 [4]: 39300 nM | CC50 [5]: 39300 nM | Ki [19]: 6.2 nM | CC50 [6]: 39300 nM

SMILES: Clc1ccc(C2=NNC(c3ccco3)C2)cc1 (stereo not drawn)
Time [7]: 21.17 s | Time [8]: 21.17 s

SMILES: Clc1ccc(C2CC(c3cccc4ccccc34)=NN2)cc1 (stereo not drawn)
Time [7]: 29.67 s | Time [8]: 43.33 s

SMILES: Oc1ccc(C2=NNC(c3cccs3)C2)cc1 (stereo not drawn)
Time [7]: 21.17 s | Time [8]: 21.17 s

SMILES: NS(=O)(=O)c1ccc(N2N=C(c3ccc(O)cc3)CC2c2cccs2)cc1 (stereo not drawn)
Ki [20]: 232 nM | CC50 [1]: 39300 nM | CC50 [2]: 39300 nM | CC50 [3]: 39300 nM | Ki [21]: 342 nM | CC50 [4]: 39300 nM | CC50 [5]: 39300 nM | Ki [19]: 6.2 nM | CC50 [6]: 39300 nM
